Each structure is given as a SMILES string.

Experiment in all cases: biochemical
What all share (format): biochemical

The target in assay [1] is T1, 363 human kinases (including Aurora A/B/C) (Homo sapiens, UniProt O14757).
T1 sequence (O14757 1-476): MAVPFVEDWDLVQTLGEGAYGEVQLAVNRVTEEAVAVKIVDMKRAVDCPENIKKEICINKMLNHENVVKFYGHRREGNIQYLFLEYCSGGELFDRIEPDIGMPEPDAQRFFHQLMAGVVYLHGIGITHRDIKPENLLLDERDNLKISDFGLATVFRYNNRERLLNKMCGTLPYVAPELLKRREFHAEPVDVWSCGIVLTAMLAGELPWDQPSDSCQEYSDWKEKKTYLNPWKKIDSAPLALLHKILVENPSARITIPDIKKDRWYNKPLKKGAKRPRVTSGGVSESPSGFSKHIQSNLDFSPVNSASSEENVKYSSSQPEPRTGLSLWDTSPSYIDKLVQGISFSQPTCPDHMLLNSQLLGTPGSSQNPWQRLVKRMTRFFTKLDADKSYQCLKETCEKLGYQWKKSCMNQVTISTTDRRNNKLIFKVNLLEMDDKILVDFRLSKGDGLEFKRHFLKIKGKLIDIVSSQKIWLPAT
The conditions noted are these: CHK1, [ATP] 20 µM; for remaining activity at 0.5 µM / remaining activity at 0.1 µM: read-out: % Enzyme Activity (relative to DMSO controls); for remaining activity at 0.1 µM: 100 nM.
Description: (§1) However, the Aurora A/B selectivity ratios derived from our in vitro and in vivo data can be compared to prioritize inhibitors.

Assay [2] has as its target 363 human kinases (including Aurora A/B/C) (Homo sapiens, UniProt O15075). The settings on record: DCAMKL1, [ATP] 50 µM; for remaining activity at 0.5 µM / remaining activity at 0.1 µM: read-out: % Enzyme Activity (relative to DMSO controls); for remaining activity at 0.1 µM: 100 nM.
Description: as §1
Assay [3] deals with 363 human kinases (including Aurora A/B/C) (Homo sapiens, UniProt O75116). The settings on record: ROCK2; for remaining activity at 0.5 µM / remaining activity at 0.1 µM: read-out: % Enzyme Activity (relative to DMSO controls); for remaining activity at 0.1 µM: 100 nM.
Description: as §1
Assay [4] deals with T2, 363 human kinases (including Aurora A/B/C) (Homo sapiens, UniProt Q13470).
T2 sequence (Q13470 1-666): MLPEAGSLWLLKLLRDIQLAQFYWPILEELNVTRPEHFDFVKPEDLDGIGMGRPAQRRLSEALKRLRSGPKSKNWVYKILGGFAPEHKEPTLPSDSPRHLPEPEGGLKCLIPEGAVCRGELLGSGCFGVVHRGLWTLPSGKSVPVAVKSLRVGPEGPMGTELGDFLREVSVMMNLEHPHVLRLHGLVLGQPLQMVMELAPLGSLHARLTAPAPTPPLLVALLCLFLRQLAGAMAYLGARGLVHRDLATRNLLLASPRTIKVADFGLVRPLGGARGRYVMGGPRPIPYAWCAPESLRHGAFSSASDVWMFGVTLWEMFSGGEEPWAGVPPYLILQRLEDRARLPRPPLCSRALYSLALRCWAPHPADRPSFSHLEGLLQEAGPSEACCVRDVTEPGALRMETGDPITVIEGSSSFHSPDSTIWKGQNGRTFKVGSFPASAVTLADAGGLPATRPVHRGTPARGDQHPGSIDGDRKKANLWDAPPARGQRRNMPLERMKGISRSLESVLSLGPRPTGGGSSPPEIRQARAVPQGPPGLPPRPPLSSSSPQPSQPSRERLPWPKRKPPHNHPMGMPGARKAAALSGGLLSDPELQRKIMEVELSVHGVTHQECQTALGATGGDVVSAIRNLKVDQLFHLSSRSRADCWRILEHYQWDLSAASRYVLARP
The conditions noted are these: TNK1; for remaining activity at 0.5 µM / remaining activity at 0.1 µM: read-out: % Enzyme Activity (relative to DMSO controls); for remaining activity at 0.1 µM: 100 nM.
Description: as §1

Assay [5] has as its target 363 human kinases (including Aurora A/B/C) (Homo sapiens, UniProt Q5VT25). The conditions noted are these: MRCKa/CDC42BPA; for remaining activity at 0.5 µM / remaining activity at 0.1 µM: read-out: % Enzyme Activity (relative to DMSO controls); for remaining activity at 0.1 µM: 100 nM.
Description: as §1
Assay [6] addresses T3, 363 human kinases (including Aurora A/B/C) (Homo sapiens, UniProt Q8IVH8).
T3 sequence (Q8IVH8 1-894): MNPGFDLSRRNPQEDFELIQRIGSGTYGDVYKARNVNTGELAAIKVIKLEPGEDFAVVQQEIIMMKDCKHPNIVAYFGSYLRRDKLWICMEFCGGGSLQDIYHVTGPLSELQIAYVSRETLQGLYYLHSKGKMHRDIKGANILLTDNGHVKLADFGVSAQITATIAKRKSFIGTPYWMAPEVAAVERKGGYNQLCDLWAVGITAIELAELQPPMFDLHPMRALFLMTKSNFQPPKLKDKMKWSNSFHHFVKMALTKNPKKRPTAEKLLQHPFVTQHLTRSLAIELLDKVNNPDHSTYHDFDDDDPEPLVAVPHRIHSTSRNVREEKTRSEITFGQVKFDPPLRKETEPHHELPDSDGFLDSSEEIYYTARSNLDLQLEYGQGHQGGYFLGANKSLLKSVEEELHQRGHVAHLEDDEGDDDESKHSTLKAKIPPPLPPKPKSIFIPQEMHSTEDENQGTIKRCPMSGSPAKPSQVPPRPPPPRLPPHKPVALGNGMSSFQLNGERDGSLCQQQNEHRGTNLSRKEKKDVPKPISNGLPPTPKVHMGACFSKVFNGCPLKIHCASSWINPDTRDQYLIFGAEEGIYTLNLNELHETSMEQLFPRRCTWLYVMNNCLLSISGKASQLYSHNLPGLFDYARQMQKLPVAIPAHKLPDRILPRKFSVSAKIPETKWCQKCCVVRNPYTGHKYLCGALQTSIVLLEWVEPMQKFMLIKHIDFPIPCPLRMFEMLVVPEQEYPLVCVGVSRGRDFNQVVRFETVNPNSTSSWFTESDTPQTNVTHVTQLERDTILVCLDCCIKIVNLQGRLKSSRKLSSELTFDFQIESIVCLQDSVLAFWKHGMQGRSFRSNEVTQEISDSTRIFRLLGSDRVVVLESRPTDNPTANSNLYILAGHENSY
The conditions noted are these: GLK/MAP4K3; for remaining activity at 0.5 µM / remaining activity at 0.1 µM: read-out: % Enzyme Activity (relative to DMSO controls); for remaining activity at 0.1 µM: 100 nM.
Description: as §1

Assay [7] has as its target 363 human kinases (including Aurora A/B/C) (Homo sapiens, UniProt Q9NYY3). The conditions noted are these: PLK2; for remaining activity at 0.5 µM / remaining activity at 0.1 µM: read-out: % Enzyme Activity (relative to DMSO controls); for remaining activity at 0.1 µM: 100 nM.
Description: as §1
Assay [8] concerns the target 363 human kinases (including Aurora A/B/C) (Homo sapiens, UniProt Q9UK32). The conditions noted are these: RSK4; for remaining activity at 0.5 µM / remaining activity at 0.1 µM: read-out: % Enzyme Activity (relative to DMSO controls); for remaining activity at 0.1 µM: 100 nM.
Description: as §1

363 human kinases (including Aurora A/B/C) (Homo sapiens, UniProt Q9UK32), sequence (Q9UK32 whole entry): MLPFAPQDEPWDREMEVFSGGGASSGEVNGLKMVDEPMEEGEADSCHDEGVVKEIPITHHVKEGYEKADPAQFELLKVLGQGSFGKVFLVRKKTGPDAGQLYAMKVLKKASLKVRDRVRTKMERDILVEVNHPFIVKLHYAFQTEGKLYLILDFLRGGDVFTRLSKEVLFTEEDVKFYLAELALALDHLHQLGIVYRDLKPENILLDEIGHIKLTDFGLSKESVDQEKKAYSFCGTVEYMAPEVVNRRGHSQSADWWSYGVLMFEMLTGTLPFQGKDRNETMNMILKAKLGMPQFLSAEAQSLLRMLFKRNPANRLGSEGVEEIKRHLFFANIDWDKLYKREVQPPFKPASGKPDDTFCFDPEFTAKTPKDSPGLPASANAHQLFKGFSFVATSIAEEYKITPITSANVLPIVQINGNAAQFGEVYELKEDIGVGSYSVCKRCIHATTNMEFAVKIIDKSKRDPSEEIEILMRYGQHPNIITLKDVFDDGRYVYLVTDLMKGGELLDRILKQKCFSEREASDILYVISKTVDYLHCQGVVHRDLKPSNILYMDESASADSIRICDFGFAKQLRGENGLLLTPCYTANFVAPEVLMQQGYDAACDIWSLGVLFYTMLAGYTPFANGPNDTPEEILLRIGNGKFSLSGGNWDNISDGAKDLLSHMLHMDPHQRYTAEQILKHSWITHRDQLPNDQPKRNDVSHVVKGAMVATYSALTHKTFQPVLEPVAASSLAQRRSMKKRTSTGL
363 human kinases (including Aurora A/B/C) (Homo sapiens, UniProt Q9NYY3), sequence (Q9NYY3 whole entry): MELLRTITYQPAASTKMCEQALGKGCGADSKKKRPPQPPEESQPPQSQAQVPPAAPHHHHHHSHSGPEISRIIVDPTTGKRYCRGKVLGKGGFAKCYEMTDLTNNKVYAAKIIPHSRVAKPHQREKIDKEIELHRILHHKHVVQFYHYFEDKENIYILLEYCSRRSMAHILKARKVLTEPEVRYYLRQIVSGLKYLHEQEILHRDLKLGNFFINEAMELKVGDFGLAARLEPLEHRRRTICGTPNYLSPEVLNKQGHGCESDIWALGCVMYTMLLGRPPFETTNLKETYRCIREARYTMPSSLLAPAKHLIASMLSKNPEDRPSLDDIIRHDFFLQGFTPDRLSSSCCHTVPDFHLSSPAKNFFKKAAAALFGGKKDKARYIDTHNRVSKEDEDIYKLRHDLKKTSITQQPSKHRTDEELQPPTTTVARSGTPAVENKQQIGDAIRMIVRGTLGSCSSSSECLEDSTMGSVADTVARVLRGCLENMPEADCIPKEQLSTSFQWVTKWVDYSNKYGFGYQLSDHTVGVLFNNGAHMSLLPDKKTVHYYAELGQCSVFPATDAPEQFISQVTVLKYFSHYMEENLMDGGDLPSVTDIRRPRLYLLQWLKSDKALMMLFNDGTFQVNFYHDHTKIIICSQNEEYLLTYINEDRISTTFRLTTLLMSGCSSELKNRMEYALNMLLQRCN
363 human kinases (including Aurora A/B/C) (Homo sapiens, UniProt O15075), sequence (O15075 whole entry): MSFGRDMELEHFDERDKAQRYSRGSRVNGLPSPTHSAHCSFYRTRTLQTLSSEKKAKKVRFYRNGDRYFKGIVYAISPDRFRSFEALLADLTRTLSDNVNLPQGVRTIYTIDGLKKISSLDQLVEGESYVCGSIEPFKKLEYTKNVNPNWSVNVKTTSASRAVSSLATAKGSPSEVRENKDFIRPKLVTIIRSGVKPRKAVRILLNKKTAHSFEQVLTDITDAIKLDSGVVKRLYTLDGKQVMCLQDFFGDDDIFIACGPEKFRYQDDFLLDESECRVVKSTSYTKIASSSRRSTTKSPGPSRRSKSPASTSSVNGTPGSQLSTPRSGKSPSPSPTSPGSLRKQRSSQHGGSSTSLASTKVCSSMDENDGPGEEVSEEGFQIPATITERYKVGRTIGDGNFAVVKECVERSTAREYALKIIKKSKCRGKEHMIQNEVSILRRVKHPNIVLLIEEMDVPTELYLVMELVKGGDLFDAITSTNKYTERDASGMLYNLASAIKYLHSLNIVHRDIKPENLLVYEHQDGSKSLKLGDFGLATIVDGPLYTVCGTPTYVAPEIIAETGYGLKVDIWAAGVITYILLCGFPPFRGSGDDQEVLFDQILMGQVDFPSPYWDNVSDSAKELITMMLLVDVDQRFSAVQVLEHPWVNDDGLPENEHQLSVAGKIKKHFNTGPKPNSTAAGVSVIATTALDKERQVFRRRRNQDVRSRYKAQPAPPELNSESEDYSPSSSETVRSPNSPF
363 human kinases (including Aurora A/B/C) (Homo sapiens, UniProt Q5VT25), sequence (Q5VT25 whole entry): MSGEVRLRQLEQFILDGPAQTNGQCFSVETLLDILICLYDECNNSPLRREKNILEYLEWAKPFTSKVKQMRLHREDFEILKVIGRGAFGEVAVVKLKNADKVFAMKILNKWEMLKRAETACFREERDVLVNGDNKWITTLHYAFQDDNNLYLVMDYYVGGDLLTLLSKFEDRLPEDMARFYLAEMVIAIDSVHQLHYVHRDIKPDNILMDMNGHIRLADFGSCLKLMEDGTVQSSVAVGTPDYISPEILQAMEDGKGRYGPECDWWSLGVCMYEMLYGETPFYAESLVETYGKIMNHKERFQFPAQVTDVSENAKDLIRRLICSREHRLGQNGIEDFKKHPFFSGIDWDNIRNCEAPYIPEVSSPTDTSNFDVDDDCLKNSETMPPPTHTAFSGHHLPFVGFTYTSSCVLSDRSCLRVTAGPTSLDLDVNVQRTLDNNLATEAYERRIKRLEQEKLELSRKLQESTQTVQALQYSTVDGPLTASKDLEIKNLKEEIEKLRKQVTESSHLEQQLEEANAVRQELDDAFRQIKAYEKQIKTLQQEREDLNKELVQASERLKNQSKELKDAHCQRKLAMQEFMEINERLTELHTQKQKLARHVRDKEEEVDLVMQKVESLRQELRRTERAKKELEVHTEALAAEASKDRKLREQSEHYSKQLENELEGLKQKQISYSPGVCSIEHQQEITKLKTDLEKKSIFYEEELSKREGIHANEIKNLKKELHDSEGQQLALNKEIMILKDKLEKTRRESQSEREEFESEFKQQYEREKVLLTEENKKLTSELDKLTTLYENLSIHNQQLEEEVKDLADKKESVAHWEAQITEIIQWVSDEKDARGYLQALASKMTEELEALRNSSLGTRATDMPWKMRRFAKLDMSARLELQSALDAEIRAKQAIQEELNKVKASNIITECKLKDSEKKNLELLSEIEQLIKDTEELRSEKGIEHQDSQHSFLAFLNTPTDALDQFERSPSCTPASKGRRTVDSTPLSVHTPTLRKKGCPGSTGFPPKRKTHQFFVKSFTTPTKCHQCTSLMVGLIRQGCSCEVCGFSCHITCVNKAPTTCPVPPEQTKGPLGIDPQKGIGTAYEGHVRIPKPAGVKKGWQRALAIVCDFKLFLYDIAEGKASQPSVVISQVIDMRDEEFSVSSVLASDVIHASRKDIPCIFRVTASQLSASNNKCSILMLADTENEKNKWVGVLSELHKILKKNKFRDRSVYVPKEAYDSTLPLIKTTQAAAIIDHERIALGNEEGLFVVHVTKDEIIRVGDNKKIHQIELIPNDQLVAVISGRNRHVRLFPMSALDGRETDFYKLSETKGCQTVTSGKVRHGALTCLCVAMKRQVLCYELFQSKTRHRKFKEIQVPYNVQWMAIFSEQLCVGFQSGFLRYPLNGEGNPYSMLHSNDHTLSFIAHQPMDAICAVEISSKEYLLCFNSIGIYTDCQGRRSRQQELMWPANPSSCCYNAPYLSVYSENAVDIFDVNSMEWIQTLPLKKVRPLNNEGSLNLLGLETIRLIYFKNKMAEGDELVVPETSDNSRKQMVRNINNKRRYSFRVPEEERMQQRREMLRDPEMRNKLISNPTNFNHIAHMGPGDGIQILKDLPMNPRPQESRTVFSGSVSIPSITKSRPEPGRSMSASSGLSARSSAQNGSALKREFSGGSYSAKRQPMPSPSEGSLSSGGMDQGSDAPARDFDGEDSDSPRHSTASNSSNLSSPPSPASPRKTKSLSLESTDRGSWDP

As for `O=C(c1cccc(Cl)c1F)N1CCN(Cc2cccc(Nc3nccs3)n2)CC1` [MK-8745], the “% Enzyme Activity (relative to DMSO controls)” value was 104.15% in assay [1] (500 nM); 138.94% in assay [2] (500 nM); 91.55% in assay [3] (500 nM); 75.54% in assay [4] (500 nM); 103.58% in assay [5] (500 nM); 88.41% in assay [6] (500 nM). In addition, the “% Enzyme Activity (relative to DMSO controls)” value in assay [7] (500 nM) is listed as 81.10%; in assay [8] (500 nM) it was 94.73%. Also, the remaining activity at 0.5 µM came to 105% in assay [1] (500 nM); 142% in assay [2] (500 nM); 92.6% in assay [3] (500 nM); 77.7% in assay [4] (500 nM); 104% in assay [5] (500 nM); 88.7% in assay [6] (500 nM). For the same molecule, the values for the remaining activity at 0.5 µM in assay [7] (500 nM) and in assay [8] (500 nM) were 81.9% and 97.1%, respectively.
With `CCn1cc(-c2ccnc3[nH]c(-c4cccc(CN(C)C)c4)cc23)c(-c2ccc(NC(=O)N(C)C)cc2)n1` [GSK1070916], the remaining activity at 0.1 µM in assay [1] is 98.7%; in assay [2] it was 114%; in assay [3], 71.8%; in assay [4], 90.7%; in assay [5], 108%; in assay [6], 88.3%. The remaining activity at 0.1 µM in assay [7] was 91.2%; in assay [8] it was 93.6%.
Take `O=C(O)[C@]1(Cc2cccc(Nc3nccs3)n2)CC[C@@H](Oc2cccc(Cl)c2F)CC1` [MK-5108]: the remaining activity at 0.1 µM was 103% in assay [1]; 108% in assay [2]; 99.6% in assay [3]; 22.9% in assay [4]; 93.7% in assay [5]; 103% in assay [6]. Further, the remaining activity at 0.1 µM stood at 88.8% in assay [7] and 94.2% in assay [8]. For the same molecule, the remaining activity at 0.5 µM in assay [1] (500 nM) worked out at 148%; in assay [2] (500 nM) it was 131%; in assay [3] (500 nM), 98.2%; in assay [4] (500 nM) it was 6.3%; in assay [5] (500 nM) it was 103%; in assay [6] (500 nM) it was 82.7%. Besides, the remaining activity at 0.5 µM in assay [7] (500 nM) was determined as 85.1%; in assay [8] (500 nM) it was 90.1%.

Source of the values: PMC4685510, “A Cell Biologist’s Field Guide to Aurora Kinase Inhibitors” (Frontiers in Oncology, 2015).
